Experimental data taken from US11166460B2, “α-amino acrylate microbicide, and preparation method therefor and uses thereof” (priority 2017, dated 2021).
≈ marks a conversion by molar mass, not a printed value. Structures can show the parent of a compound that is named as a salt. Where two headings read alike, the source gives them in different places.

Assays:
[1] = system: tobacco mosaic virus (TMV); test: Anti-TMV inducing activity (induction mode), tobacco seedlings; type: in vivo; settings: for inhibition at 100 µg/mL: Tobacco mosaic virus, read-out: Anti-TMV activity, Induction effect (inhibition), 100 μg/mL, tobacco seedlings
[2] = system: tobacco mosaic virus (TMV); test: Anti-TMV protective activity (protection mode), live friction inoculation on tobacco seedlings; type: in vivo; settings: for inhibition at 100 µg/mL: Tobacco mosaic virus, read-out: Anti-TMV activity, Protection effect (inhibition)
[3] = system: tobacco mosaic virus (TMV); test: Anti-TMV inactivation activity (inactivation mode), compound mixed with TMV before inoculation of tobacco leaves; type: in vivo; settings: for inhibition at 100 µg/mL: Tobacco mosaic virus, read-out: Anti-TMV activity, Inactivation effect (inhibition)
[4] = system: tobacco mosaic virus (TMV); test: Anti-TMV curative activity (treatment mode), live friction inoculation on tobacco seedlings; type: in vivo; settings: for Anti-TMV activity, Curative effect (inhibition): 100 μg/mL, tobacco seedlings, checked on seventh day; for inhibition at 100 µg/mL: Tobacco mosaic virus, read-out: Anti-TMV activity, Curative effect (inhibition), 100 μg/mL, tobacco seedlings, checked on seventh day
Cercospora arachidicola = test: Fungicidal activity, fungi growth rate method, CA; type: cell-based; settings: Mycosphaerella arachidis, 50 μg/mL
Pellicularia sasakii = test: Fungicidal activity, fungi growth rate method, PS; type: cell-based; settings: 50 μg/mL
Physalospora piricola = test: Fungicidal activity, fungi growth rate method, PP; type: cell-based; settings: 50 μg/mL
Alternaria solani = test: Fungicidal activity, fungi growth rate method, AS; type: cell-based; settings: Alternaria solani, 50 μg/mL
Sclerotinia sclerotiorum = test: microbe, parasite or virus in culture; type: cell-based; settings: Sclerotinia sclerotiorum; for inhibition at 50 µg/mL: 50 μg/mL
[5] = system: Phytophthora infestans (Mont) de Bary; test: microbe, parasite or virus in culture; type: cell-based; settings: Phytophthora infestans
Rhizoctonia cerealis = test: Fungicidal activity, fungi growth rate method, RC; type: cell-based; settings: Ceratobasidium cereale, 50 μg/mL
wheat Gibberella zeae = test: microbe, parasite or virus in culture; type: cell-based; settings: Fusarium graminearum
Botrytis cinerea = test: Fungicidal activity, fungi growth rate method, BC; type: cell-based; settings: Botrytis cinerea, 50 μg/mL
[6] = read-out: Fungicidal activity, inhibition, CA
[7] = read-out: Fungicidal activity, inhibition, PS
[8] = read-out: Fungicidal activity, inhibition, PP
[9] = read-out: Fungicidal activity, inhibition, AS
[10] = read-out: Fungicidal activity (inhibition) against SS: Sclerotinia sclerotiorum
[11] = read-out: Fungicidal activity, inhibition, SS
[12] = read-out: Fungicidal activity, inhibition, PI
[13] = read-out: Fungicidal activity, inhibition, RC
[14] = read-out: Fungicidal activity, inhibition, GZ
[15] = read-out: Fungicidal activity, inhibition, BC

Row | SMILES | melting point | Anti-TMV activity, Curative effect (inhibition) [4] | inhibition at 100 µg/mL [1] | inhibition at 50 µg/mL (Cercospora arachidicola; [6]) | inhibition at 50 µg/mL (Pellicularia sasakii; [7]) | inhibition at 50 µg/mL (Physalospora piricola; [8]) | inhibition at 50 µg/mL (Alternaria solani; [9]) | inhibition at 50 µg/mL (Sclerotinia sclerotiorum; [10]) | inhibition at 50 µg/mL (Sclerotinia sclerotiorum; [11]) | inhibition at 50 µg/mL [5, 12] | inhibition at 100 µg/mL [2] | inhibition at 100 µg/mL [3] | inhibition at 50 µg/mL (Rhizoctonia cerealis; [13]) | inhibition at 50 µg/mL (wheat Gibberella zeae; [14]) | inhibition at 50 µg/mL (Botrytis cinerea; [15]) | inhibition at 100 µg/mL [4] | also measured
1 | O=C(N/C(=C\c1ccccc1)C(=O)N1CCC(O)(c2ccc(Br)cc2)CC1)C1CCNCC1 (as salt: hydrochloride) [Compound 4, (Z)-N-[1-[[4-(4-bromophenyl)-4-hydroxy-1-piperidinyl]carbonyl]-2-phenylethenyl]-1-piperidine-4-carboxamide-hydrochloride] | 147 to 149 °C | – | – | – | – | – | – | – | – | – | – | – | – | – | – | – | –
2 | CSC(=O)c1cccc2nnsc12 [BTH, Acibenzolar-S-Methyl, reference compound] | – | 50.00% | – | – | – | – | – | – | – | – | – | – | – | – | – | – | Anti-TMV activity, Induction effect (inhibition) ([1]; 100 μg/mL, tobacco seedlings): 96%; Anti-TMV activity, Protection effect (inhibition) ([2]; 100 μg/mL, tobacco seedlings, checked on seventh day): 76%; Anti-TMV activity, Inactivation effect (inhibition) ([3]; 100 μg/mL, tobacco leaves, checked on seventh day): 63%
3 | O=C(N/C(=C\c1ccccc1)C(=O)N1CCC(O)(c2ccc(Br)cc2)CC1)C1CC1 [Compound 1, (Z)-N-[1-[[4-(4-bromophenyl)-4-hydroxy-1-piperidinyl]carbonyl]-2-phenylethenyl]cyclopropanecarboxamide] | 163 to 164 °C | 54% | 11% | 16% | 14% | 10% | 21% | 80 to 95% | 83% | 27% | 48% | 83% | 29% | 26% | 21% | 53% | –
4 | O=C(N/C(=C\c1ccccc1)C(=O)N1CCC(O)(c2ccc(Br)cc2)CC1)C1CCCCC1 [Compound 2, (Z)-N-[1-[[4-(4-bromophenyl)-4-hydroxy-1-piperidinyl]carbonyl]-2-phenylethenyl]cyclohexanecarboxamide] | 124 to 126 °C | – | 77% | 12% | 19% | 7% | 15% | 100% | 100% | 23% | 43% | 81% | 16% | 22% | 15% | 50% | EC90 (Sclerotinia sclerotiorum; read-out: EC90 against S. sclerotiorum in vitro): 565 µg/mL (≈ 1110 µM)
5 | O=C(N/C(=C\c1ccccc1)C(=O)N1CCC(O)(c2ccc(Br)cc2)CC1)C1CCNCC1 [Compound 4, (Z)-N-[1-[[4-(4-bromophenyl)-4-hydroxy-1-piperidinyl]carbonyl]-2-phenylethenyl]-1-piperidine-4-carboxamide-hydrochloride] | – | – | 1% | 6% | 9% | 12% | 21% | – | 47% | 11% | 1% | 3% | 23% | 43% | 24% | 0% | –
6 | O=C(N/C(=C\c1cccs1)C(=O)N1CCC(O)(c2ccc(Br)cc2)CC1)c1ccccc1 [Compound 24, (Z)-N-[1-[[4-(4-bromophenyl)-4-hydroxy-1-piperidinyl]carbonyl]-2-(2-thienyl)ethenyl]benzamide] | 180 to 182 °C | – | – | 16% | 18% | 10% | 15% | 67% | 67% | 17% | 36% | 1% | 19% | 23% | 14% | 0% | inhibition at 50 µg/mL (Cercospora arachidicola; read-out: Fungicidal activity (inhibition) against CA: Cercospora arachidicola): < 25%; inhibition at 50 µg/mL (Pellicularia sasakii; read-out: Fungicidal activity (inhibition) against PS: Pellicularia sasakii): < 30%; inhibition at 50 µg/mL (Physalospora piricola; read-out: Fungicidal activity (inhibition) against PP: Physalospora piricola): < 20%; inhibition at 50 µg/mL (Alternaria solani; read-out: Fungicidal activity (inhibition) against AS: Alternaria solani): < 30%; inhibition at 50 µg/mL ([5]; read-out: Fungicidal activity (inhibition) against PI: Phytophthora infestans (Mont) de Bary): < 25%; inhibition at 50 µg/mL (Rhizoctonia cerealis; read-out: Fungicidal activity (inhibition) against RC: Rhizoctonia cerealis): < 20%; inhibition at 50 µg/mL (wheat Gibberella zeae; read-out: Fungicidal activity (inhibition) against GZ: wheat Gibberella zeae): < 45%; inhibition at 50 µg/mL (Botrytis cinerea; read-out: Fungicidal activity (inhibition) against BC: Botrytis cinerea): ≤ 20%
